{"source": "patent US20240035092A1", "about": "“METHODS, KITS, AND SYSTEMS FOR PREDICTING PATIENT OUTCOMES” (SAPERE BIO, INC., priority 2020, published 2024)", "key": {"[1]": {"tested_on": "advanced breast cancer, hormone receptor-positive, HER2-negative", "test": "Time to progression on CDK4/6i treatment", "assay_type": "in vivo, human", "settings": "Palbociclib with letrozole or fulvestrant", "description": "Six patients diagnosed with advanced breast cancer who were hormone receptor-positive, HER2-negative, were enrolled into a study and received a CDK4/6 inhibitor, Palbociclib, in combination with hormone-based therapy (letrozole or fulvestrant). Venous blood samples were collected from each patient into an EDTA tube prior to CDK4/6i administration, and at approximately 3 and 6 months (see FIG. 15 for timing) after the start of drug administration. T cells were isolated from blood samples and p16 expression levels were calculated as described in Example 1. Patients were followed to determine how long they received CDK4/6i treatment before becoming resistant to CDK4/6i and their cancer began to progress again (time to progression)."}, "CIPN patients": {"tested_on": "CIPN patients", "settings": "cited from earlier work"}, "[2]": {"tested_on": "patients diagnosed with early-stage breast cancer", "test": "Grade 2 or higher CIPN diagnosed by a clinician (CTCAE-CIPN) during taxane chemotherapy", "assay_type": "in vivo, human", "settings": "adjuvant or neoadjuvant chemotherapy, at any point during chemotherapy, 89 patients on paclitaxel, 70 on docetaxel", "description": "One hundred fifty-nine patients diagnosed with early-stage breast cancer and scheduled to undergo adjuvant or neoadjuvant chemotherapy treatment that included a taxane regimen (paclitaxel or docetaxel) were enrolled. To be enrolled in the study, each patient must have met all of the inclusion criteria. Inclusion criteria: women ages 21 or older with histologically confirmed Stage I-III breast cancer and scheduled for adjuvant or neoadjuvant chemotherapy. Venous blood samples were collected from each patient into an EDTA tube during the patient's consultation visit with the oncologist or at their first chemotherapy session before chemotherapy was administered. Additional blood samples were collected at the end of chemotherapy treatment for 124 of the initial 159 patients. Median age of patients at consent was 58 years (24-83 range), median p16 was 9.5 (6.8-11.6 range), and median p16Age GAP was −22 years (−94-37 range). T cells were isolated from blood samples and p16 expression levels were calculated as described in Example 1.\nDevelopment of grade 2 or higher CIPN as diagnosed by a clinician (CTCAE-CIPN) at any point during chemotherapy was an endpoint of the study. […]"}, "[3]": {"tested_on": "patients diagnosed with early-stage breast cancer", "test": "CIPN risk prediction score built from the p16Age GAP regression model", "design": "species or system human", "settings": "patient with a CIPN score of 11 (scale 0-20)", "description": "Regression models were built by step-wise addition of variables such as co-morbidities, chronological age, p16, or p16Age GAP and interactions between the variables were also considered. […] In contrast, when p16Age GAP was used instead of p16 (Model 2), p16Age GAP was able to replace all co-morbidities, chronological age, and p16 as variables to yield the model with the similar fit (AUC 0.76, NPV 87%). The ROC curve depicted in FIG. 4 was calculated using Model 2. The p16Age GAP-containing model was a strong predictor of the risk of developing CIPN.\nThe data from the regression model shown in FIG. 4 was used to build a CIPN risk prediction score according to standard methods (see, e.g., Hurria, J. Clin Oncol. (2011) and Hurria J. Clin Oncology, (2016)). All variables were assigned a weight based on their R coefficients in the regression model and the sum of all weights was added to create a final risk score for each patient. For a CIPN risk model, the range was adjusted so the total score scale was 0-20, with a single value for each patient. […] In certain embodiments, this risk differential between regimens of similar efficacy can help guide regimen selection. […]"}}, "data": [{"smiles": "CC(=O)c1c(C)c2cnc(Nc3ccc(N4CCNCC4)cn3)nc2n(C2CCCC2)c1=O", "note": "[CDK 4/6i, Palbociclib]", "values": [{"measurement": "time to progression (resistance to CDK 4/6i treatment)", "setting": "[1]; four patients whose p16 expression did not increase above measurement precision", "value": "35-50 months"}, {"measurement": "time to progression (resistance to CDK 4/6i treatment)", "setting": "[1]; two patients whose p16 expression increased above measurement precision after treatment", "value": "10-20 months"}]}, {"smiles": "CNCC[C@H](Oc1cccc2ccccc12)c1cccs1", "note": "[Duloxetine]", "values": [{"measurement": "decrease in pain score, on average", "setting": "CIPN patients; CIPN patients, improvement derived primarily from patients who received platinum-containing agents", "value": "one"}, {"measurement": "benefit on CIPN pain", "setting": "CIPN patients; patients receiving taxanes", "value": "no clear benefit"}]}, {"smiles": "CC(=O)O[C@@]12CO[C@@H]1C[C@H](O)[C@@]1(C)C(=O)[C@H](O)C3=C(C)[C@@H](OC(=O)[C@H](O)[C@@H](NC(=O)OC(C)(C)C)c4ccccc4)C[C@@](O)([C@@H](OC(=O)c4ccccc4)[C@H]21)C3(C)C", "note": "[docetaxel]", "values": [{"measurement": "patients who developed grade 2 or higher CIPN", "setting": "[2]", "value": 10, "unit": "%"}, {"measurement": "risk of CIPN", "setting": "[3]", "value": 9, "unit": "%"}]}, {"smiles": "CC(=O)O[C@H]1C(=O)[C@@]2(C)[C@H]([C@H](OC(=O)c3ccccc3)[C@]3(O)C[C@H](OC(=O)[C@H](O)[C@@H](NC(=O)c4ccccc4)c4ccccc4)C(C)=C1C3(C)C)[C@]1(OC(C)=O)CO[C@@H]1C[C@@H]2O", "note": "[paclitaxel]", "values": [{"measurement": "patients who developed grade 2 or higher CIPN", "setting": "[2]", "value": 46, "unit": "%"}, {"measurement": "risk of CIPN", "setting": "[3]", "value": 50, "unit": "%"}]}]}
